Experimental findings from publication PMC12867150, “A fungi-derived cyclic peptide enhances Th9-mediated antitumor immunity by targeting ZAP70 and SREBP1” (The Journal of Clinical Investigation, 2025) are described below.

One experiment concerns PD-1 on Th9 cells. Nature of the experiment: Flow cytometry of PD-1 on Th9 cells in vitro (Figure 5K, 7E, S3D). The format is cell-based, mouse. As to conditions: for PD-1 expression: result in words; for PD1 (flow cytometric quantification): Figure 5K, (n = 5); for PD1 (flow cytometric quantification) / PD-1 expression in Th9 cells: individual replicates; for PD-1 expression in Th9 cells: Figure 7E, one per column (n = 4); for Expression of PD-1 in Th9: Supplemental Figure 3D. How it is done: (§1) Naive CD4^+ T cells were isolated from the spleens of C57BL/6J or CD45.1^+ OT-II mice using the MojoSort Mouse CD4 Naive T Cell Isolation Kit (BioLegend, catalog 480040), following the manufacturer’s protocol. Purified cells were cultured in RPMI-1640 medium supplemented with 10% FBS, 1% penicillin-streptomycin, and 0.1% β-mercaptoethanol (Gibco, catalog 21985023).
(§2) T cell polarization was initiated under plate-bound anti-CD3 (2 μg/mL, clone 17A2, BioXCell, catalog BE0002) and soluble anti-CD28 (1 μg/mL, clone 37.51, BioXCell, catalog BE0015-1) stimulation, with the addition of cytokines and neutralizing antibodies specific to each subset. For Th9 cells, these included IL-4 (10 ng/mL, Peprotech, catalog 400-04), TGF-β (1 ng/mL, EPOTO Biotech, catalog HF-2021), anti–IL-12 (5 μg/mL, clone C17.8, BioXCell, catalog BE0051), and anti–IFN-γ (10 μg/mL, clone XMG1.2, BioXCell, catalog BE0055); for Th1 cells, these included IL-12 (10 ng/mL, GenScript, catalog Z03211-50) and anti–IL-4 (5 μg/mL, clone 11B11, BioXCell, catalog BE0045); for Th2 cells, these included IL-4 (50 ng/mL), anti–IFN-γ (20 μg /mL), anti–IL-12 (5 μg/mL), Th17 cells: IL-6 (20 ng/mL, EPOTO Biotech, catalog MF-1006), TGF-β (1 ng/mL), IL-1β (10 ng/mL, Peprotech, catalog AF-211-11B), anti–IFN-γ (10 μg/mL), anti–IL-12 (5 μg/mL), and anti–IL-4 (5 μg/mL); and for Tregs, these included TGF-β (3 ng/mL). After 3 days of initial culture, cells were either collected for downstream assays or continued in extended culture with refreshed cytokines to maintain lineage commitment.
(§3) Details regarding staining panels (human and mouse), reagents (including clones and catalog numbers), acquisition settings, compensation/controls, and analysis procedures are provided in Supplemental Methods.
(§4) BioLegend, Cat. No. 422301 or Mouse TruStain FcX™, BioLegend, Cat. No. 101319) for 10 minutes at 4°C. For surface marker detection, cells were stained with fluorochrome-conjugated monoclonal antibodies in 96-well V-bottom plates and incubated on ice for 30 minutes. After staining, cells were washed twice and resuspended in FACS buffer for analysis.
(§5) Prior to intracellular cytokine staining, cells were restimulated for 4 hours with PMA (Absin, Cat. No. abs9107), ionomycin (Sigma-Aldrich, Cat. No. I0634), and brefeldin A (MedChemExpress, Cat. No. HY-16592). For intracellular cytokine staining, cells were first surface-stained as described above, then fixed and permeabilized using the BD Cytofix/Cytoperm™ kit (BD Biosciences, Cat. No. 554714) according to the manufacturer ’s protocol. Intracellular proteins were stained with directly conjugated antibodies targeting IL-9, IL-17a, IL-4, IFN-γ, TNF-α, FOXP3, p-ZAP70, Perforin, and […]
(§6) Antibodies used for mouse samples included those against IL-9 (PE, clone RM9A4, Biolegend, Cat. No. 514104), IFN-γ (PE, clone XMG1.2, Biolegend, Cat. No.
(§7) Cat. No. 103138), CD4 (APC/Cy7, clone E-AB-F1353UJ, Elabscience, Cat. No.
(§8) AF18028), CD8α (PerCP/Cy5.5, clone E-AB-F1104UJ, Elabscience, Cat. No. […]
(§9) clone E-AB-F1187UH, Elabscience, Cat. No. AF19854), TNF-α (BV421, clone MP6-XT22, Biolegend, Cat. No. 506328), FOXP3 (PE, clone FJK-16s, eBioscience, Cat. No.
(§10) Perforin (APC, clone S16009A, Biolegend, Cat. No. 154303) and Granzyme B (APC, […]
(§11) clone QA16A02, Biolegend, Cat. No. 372203). […]

The test system of a further experiment is Th9 cells. Nature of the experiment: IL-9+ Th9 cells with fatostatin (Figure 7A). Type of experiment: cell-based, mouse. Details: IL-9 expression in Th9 cells: unit not given here. Particulars: for IL-9 expression in Th9 cells: Figure 7A, individual replicates, one per column (n = 4); for IL-9 production: fatostatin 5 μM, alone or with EpA 10 μM, result in words.
Text: (B) Quantitative PCR analysis of Il9 mRNA expression in cells treated as in A (n = 3). (C–F) Flow cytometric analysis of TNF-α production (C), CD69 expression (D), PD-1 expression (E), and mitochondrial membrane potential measured by MitoTracker staining (F) in Th9 cells treated with the indicated conditions (n = 4 for C–E; n = 3 for F). […] Cluster 2 includes genes related to calcium signaling, glycolysis, oxidative phosphorylation, and ERK signaling; cluster 6 includes genes associated with lipid biosynthesis. […] Statistical significance was determined using 1-way ANOVA followed by Tukey’s post hoc test (A–F and H–J). Data are presented as mean ± SEM (A–F and H–J). **P < 0.01, ***P < 0.001, ****P < 0.0001. […] It is left out because it is the vehicle control, not a substance.
as §2
[…] Dead cells were detected using Fixable Viability Dye eFluor 780 (eBioscience, catalog 65-0865).

Experiment [1] deals with mitochondria of human Th9 cells. Nature of the experiment: Mitochondrial membrane potential / mass of human Th9 cells (Figure 8D, S9B). The format is cell-based. As to conditions: for mitochondrial mass using Mito Tracker in human Th9 cells: flow cytometry, Supplemental Figure 9B. How it is done:
For Th9 polarization, cultures were supplemented with IL-4 (10 ng/mL, PeproTech, catalog AF-200-04), TGF-β (1 ng/mL), and neutralizing anti–IFN-γ monoclonal antibody (10 μg/mL, clone B27, BioXcell, catalog BE0245). After 3 days of initial culture, cells were either collected for downstream assays or continued in extended culture with refreshed cytokines to maintain lineage commitment without antibodies. Th9 cells were collected at days 4, 5, and 6 for subsequent in vitro assays. For adoptive transfer studies, day 4–cultured Th9 cells were washed and prepared for intravenous injection.
Mitochondrial mass and membrane potential were assessed using MitoTracker™ Deep Red FM (Thermo Fisher Scientific, catalog M22426) and TMRM (tetramethylrhodamine methyl ester; Macklin, catalog T868125), respectively, following the manufacturers’ protocols. Cells were incubated with the respective dyes, washed, and subjected to flow cytometry or fluorescence microscopy analysis. For ultrastructural assessment, mitochondrial number and diameter were quantified from high-resolution transmission electron microscopy (TEM) images using ImageJ software.
Background: Flow cytometry measures light scatter and fluorescence of single cells or particles in a stream.

The test system of a further experiment is CD69 on Th9 cells. Nature of the experiment: Flow cytometry of CD69 on Th9 cells in vitro (Figure 5J, 7D). Type of experiment: cell-based, mouse. Details: CD69 expression in Th9 cells: unit not given here. Particulars: for CD69 (flow cytometric quantification): Figure 5J, (n = 5); for CD69 (flow cytometric quantification) / CD69 expression in Th9 cells: individual replicates; for CD69 expression in Th9 cells: Figure 7D, one per column (n = 4). How it is done: as §1, §2, §3, §4, §5, §6, §7, §8, §9, §10, §11

Where [2] appears, read: EpA (10 µM) + Fatostatin (10 µM).

Values joined by “and” are separate entries in the source; they are usually repeats but may differ in a detail not shown here. Equal entries are not always repeated. Structures can show the parent of a compound that is named as a salt.

For the compound anteiso-C15 Leu7 surfactin [EpA], the PD-1 expression result in the experiment with PD-1 on Th9 cells (EpA-Th9 cells in vitro) is reported as “increased PD-1 expression”; in the experiment with PD-1 on Th9 cells (fatostatin alone or with EpA), “not further increased in EpA-Th9 cells treated with fatostatin”. For the same compound, the “PD1 (flow cytometric quantification)” value in the experiment on PD-1 on Th9 cells (EpA + ERKin combination) is 205 and 196 and 199 and 194 and 192; with PD-1 on Th9 cells (EpA + MEKin combination), 163 and 169 and 166 and 170 and 159; in the experiment with PD-1 on Th9 cells (single agent) it was 986 and 1657 and 450 and 878 and 1491. The “PD-1 expression in Th9 cells” value in the experiment on PD-1 on Th9 cells (setting [2]) is 424 and 342 and 382 and 324; in the experiment with PD-1 on Th9 cells (single agent, 10 µM), 366 and 370 and 368 and 374. Besides, the “Expression of PD-1 in Th9” value was determined as 836 with PD-1 on Th9 cells (replicate 1); 830 in the experiment with PD-1 on Th9 cells (replicate 2); 871 in the experiment on PD-1 on Th9 cells (replicate 3); 812 in the experiment on PD-1 on Th9 cells (replicate 4); 848 with PD-1 on Th9 cells (replicate 5); 842 in the experiment on PD-1 on Th9 cells (replicate 6). Further, the “IL-9 expression in Th9 cells” value in the experiment on Th9 cells was 74.4 and 75.9 and 77.3 and 78.9; in the experiment on Th9 cells (single agent), 46.6 and 46.1 and 47.5 and 45.4. Moreover, the IL-9 production result in the experiment with Th9 cells is “further enhanced when combined with EpA”. For the same compound, the “mitochondrial mass using Mito Tracker in human Th9 cells” value is on record as 2.888 ×10^5 in experiment [1] (replicate 1), 2.867 ×10^5 in experiment [1] (replicate 2) and 2.9 ×10^5 in experiment [1] (replicate 3). The “mitochondrial membrane potential, human Th9” value in experiment [1] (result in words) is “increased mitochondrial membrane potential”. Besides, the CD69 expression result with CD69 on Th9 cells (EpA + fatostatin, result in words) was “elevated in the combination group”. The “CD69 (flow cytometric quantification)” value with CD69 on Th9 cells (EpA + ERKin combination) was 27.9 and 23.5 and 24 and 26.9 and 24.1; in the experiment with CD69 on Th9 cells (EpA + MEKin combination) it was 20.8 and 22.9 and 21.2 and 18.2 and 18.1; in the experiment with CD69 on Th9 cells (single agent) it was 59.4 and 133 and 54.7 and 74.6 and 155. Further, the “CD69 expression in Th9 cells” value with CD69 on Th9 cells (setting [2]) is 54.9 and 46.3 and 45.8 and 49.3; in the experiment on CD69 on Th9 cells (single agent, 10 µM) it was 41.4 and 40.9 (2×) and 41.7.

For `CCCc1cc(-c2nc(-c3ccc(C)cc3)cs2)ccn1` [fatostatin, fatostatin hydrobromide, reference compound], the “PD-1 expression in Th9 cells” value in the experiment with PD-1 on Th9 cells (single agent, 10 µM) is 384 and 402 and 369 and 372. Moreover, the PD-1 expression result in the experiment with PD-1 on Th9 cells (fatostatin alone or with EpA) is listed as “induced PD-1 upregulation in control Th9 cells”. For the same compound, the “IL-9 expression in Th9 cells” value with Th9 cells (single agent) is 25.4 and 26.8 and 28.6 and 27.5. Further, the IL-9 production result in the experiment on Th9 cells is reported as “significantly upregulated IL-9 production”. Also, the “mitochondrial membrane potential, human EpA-Th9” value in experiment [1] (with fatostatin, result in words) was “further augmented”. For the same compound, in the experiment on CD69 on Th9 cells (single agent, 10 µM), the “CD69 expression in Th9 cells” value is 39.9 and 41.1 and 41.2 and 39.2.
